Tests used:
[1] = Induction of anti-CD3 antibodies-stimulated human T cell activation at 10 uM assessed fold increase in IFN-gamma secretion measured by ELISA assay; format: functional, T cell line; also: reference of the scale not given here
[2] = Induction of allogenic human T cell activation at 10 uM assessed fold increase in cell proliferation; format: functional, T cell line
[3] = Induction of anti-CD3/CD28 antibodies-stimulated human T cell activation at 4 uM assessed fold increase in IL-2 secretion measured by ELISA assay; format: functional, T cell line
[4] = Induction of anti-CD3 antibodies-stimulated human CD8+ T cell activation at 10 uM assessed fold increase in cell proliferation measured by flow cytometry analysis; format: functional, T cell line; also: reference of the scale not given here
[5] = Induction of activation of human CD56+ CD3- NK cells co-cultured with human K562 cells in 1:1 ratio and assessed as increase in IFN-gamma secretion at 2.5 uM measured by ELISA assay; format: functional, Natural killer cell
[6] = Induction of activation of human CD56+ CD3- NK cells co-cultured with human K562 cells in 1:1 ratio and assessed as increase in IFN-gamma secretion at 0.625 uM measured by ELISA assay; format: functional, Natural killer cell
[7] = Induction of anti-CD3 antibodies-stimulated human T cell activation at 8 uM assessed fold increase in CD25 expression measured by ELISA assay; format: functional, T cell line; also: reference of the scale not given here
[8] = Induction of anti-CD3 antibodies-stimulated human CD4+ T cell activation at 10 uM assessed fold increase in CD69 expression measured by flow cytometry analysis; format: functional, T cell line; also: reference of the scale not given here
[9] = Induction of anti-CD3 antibodies-stimulated human CD4+ T cell activation at 1.11 uM assessed fold increase in CD69 expression measured by flow cytometry analysis; format: functional, T cell line; also: reference of the scale not given here
[10] = Induction of anti-CD3 antibodies-stimulated human exhausted CD4+ T cell activation assessed fold increase in CTLA4 expression measured by flow cytometry analysis; format: functional, T cell line; also: reference of the scale not given here
[11] = Induction of activation of human CD56+ CD3- NK cells co-cultured with human K562 cells in 1:1 ratio and assessed as increase in IFN-gamma secretion at 10 uM measured by ELISA assay; format: functional, Natural killer cell
[12] = Induction of anti-CD3/CD28 antibodies-stimulated human T cell activation at 1 uM assessed fold increase in IL-2 secretion measured by ELISA assay; format: functional, T cell line
[13] = Induction of activation of human CD56+ CD3- NK cells co-cultured with human K562 cells in 1:1 ratio and assessed as increase in TNF-alpha secretion at 2.5 uM measured by ELISA assay; format: functional, Natural killer cell
[14] = Induction of anti-CD3/CD28 antibodies-stimulated human T cell activation at 1.11 uM assessed fold increase in IFN-gamma secretion measured by ELISA assay; format: functional, T cell line
[15] = Induction of anti-CD3/CD28 antibodies-stimulated human T cell activation at 4 uM assessed fold increase in CD25 expression measured by ELISA assay; format: functional, T cell line
[16] = Induction of anti-CD3/CD28 antibodies-stimulated human anergic T cell activation at 10 uM assessed fold increase in IFN-gamma secretion measured by ELISA assay; format: functional, T cell line
[17] = Induction of anti-CD3/CD28 antibodies-stimulated human CD8+ T cell activation at 10 uM assessed fold increase in cell proliferation measured by flow cytometry analysis; format: functional, T cell line
[18] = Induction of anti-CD3 antibodies-stimulated human T cell activation at 10 uM assessed fold increase in TNF-alpha secretion measured by ELISA assay; format: functional, T cell line; also: reference of the scale not given here
[19] = Induction of anti-CD3 antibodies-stimulated human exhausted T cell activation assessed fold increase in IFN-gamma secretion measured by ELISA assay; format: functional, T cell line; also: reference of the scale not given here
[20] = Induction of anti-CD3/CD28 antibodies-stimulated human T cell activation at 10 uM assessed fold increase in GM-CSF secretion measured by ELISA assay; format: functional, T cell line
[21] = Induction of anti-CD3/CD28 antibodies-stimulated human anergic T cell activation at 0.37 uM assessed fold increase in IFN-gamma secretion measured by ELISA assay; format: functional, T cell line
[22] = Induction of anti-CD3/CD28 antibodies-stimulated human CD4+ T cell activation at 1.11 uM assessed fold increase in CD69 expression measured by flow cytometry analysis; format: functional, T cell line
[23] = Induction of anti-CD3/CD28 antibodies-stimulated human T cell activation at 1.11 uM assessed fold increase in TNF-alpha secretion measured by ELISA assay; format: functional, T cell line
[24] = Induction of anti-CD3/CD28 antibodies-stimulated human T cell activation at 1.11 uM assessed fold increase in GM-CSF secretion measured by ELISA assay; format: functional, T cell line
B cell = assay: Induction of anti-IgM-stimulated human CD20+ B cell activation at 10 to 1000 uM assessed as increase in CD69 expression measured as mean fluorescence intensity AUC by flow cytometry analysis; format: functional, cell-based; conditions: dose 10-1000 µM
[25] = Induction of anti-CD3/CD28 antibodies-stimulated human T cell activation at 10 uM assessed fold increase in IFN-gamma secretion measured by ELISA assay; format: functional, T cell line
[26] = Induction of anti-CD3/CD28 antibodies-stimulated human CD4+ T cell activation at 1.11 uM assessed fold increase in cell proliferation measured by flow cytometry analysis; format: functional, T cell line
[27] = Induction of anti-CD3 antibodies-stimulated human T cell activation at 1.11 uM assessed fold increase in TNF-alpha secretion measured by ELISA assay; format: functional, T cell line; also: reference of the scale not given here
[28] = Induction of allogenic human T cell activation at 3 uM assessed fold increase in cell proliferation; format: functional, T cell line
[29] = Induction of anti-CD3 antibodies-stimulated human T cell activation at 8 uM assessed fold increase in IL-2 secretion measured by ELISA assay; format: functional, T cell line; also: reference of the scale not given here
[30] = Induction of anti-CD3/CD28 antibodies-stimulated human T cell activation at 10 uM assessed fold increase in TNF-alpha secretion measured by ELISA assay; format: functional, T cell line
[31] = Induction of anti-CD3 antibodies-stimulated human T cell activation at 1 uM assessed fold increase in IL-2 secretion measured by ELISA assay; format: functional, T cell line; also: reference of the scale not given here
[32] = Induction of anti-CD3/CD28 antibodies-stimulated human T cell activation at 0.3 uM assessed fold increase in IL-2 secretion measured by ELISA assay; format: functional, T cell line
[33] = Induction of anti-CD3 antibodies-stimulated human exhausted T cell activation assessed fold increase in IL-2 secretion measured by ELISA assay; format: functional, T cell line; also: reference of the scale not given here
[34] = Induction of anti-CD3/CD28 antibodies-stimulated human CD8+ T cell activation at 10 uM assessed fold increase in CD69 expression measured by flow cytometry analysis; format: functional, T cell line
[35] = Induction of activation of human CD56+ CD3- NK cells co-cultured with human K562 cells in 1:1 ratio and assessed as increase in TNF-alpha secretion at 0.625 uM measured by ELISA assay; format: functional, Natural killer cell
[36] = Induction of anti-CD3/CD28 antibodies-stimulated human CD8+ T cell activation at 1.11 uM assessed fold increase in CD69 expression measured by flow cytometry analysis; format: functional, T cell line
[37] = Induction of anti-CD3/CD28 antibodies-stimulated human CD4+ T cell activation at 10 uM assessed fold increase in CD69 expression measured by flow cytometry analysis; format: functional, T cell line

Row | SMILES | fold change (FC) [1] | fold change (FC) [2] | fold change (FC) [3] | fold change (FC) [4] | fold change (FC) [5] | fold change (FC) [6] | fold change (FC) [7] | fold change (FC) [8] | fold change (FC) [9] | fold change (FC) [10] | fold change (FC) [11] | fold change (FC) [12] | fold change (FC) [13] | fold change (FC) [14] | fold change (FC) [15] | fold change (FC) [16] | fold change (FC) [17] | fold change (FC) [18] | fold change (FC) [19] | fold change (FC) [20] | other results
1 | Cn1cnnc1C(F)(F)[C@](C)(F)c1cccc(N2Cc3c(cc(CN4CC[C@@H](C#N)C4)cc3C(F)(F)F)C2=O)c1 | 3.01 | <=2 | >=7.5 | >4 | >=5 | 2.01 | >=1.001 | >1.601 | 1.401 | >1.61 | >=5 | >=7.5 | 2.01 | >4 | 1.31 | >4.01 | >4 | 2.01 | >1.61 | >4 | fold change (FC) [21]: <=2.5; fold change (FC) [22]: 1.201; fold change (FC) [23]: 2.01; fold change (FC) [24]: 2.01; AUC (B cell): 1.01; fold change (FC) [25]: >4; fold change (FC) [26]: >4; fold change (FC) [27]: <=1.5; fold change (FC) [28]: <=2; fold change (FC) [29]: >=0.201; fold change (FC) [30]: 2.01; fold change (FC) [31]: 0.151; fold change (FC) [32]: 5; fold change (FC) [33]: <=2.5; fold change (FC) [34]: 1.201; fold change (FC) [35]: 1.01; fold change (FC) [36]: 1.201; fold change (FC) [37]: 1.401
2 | C[C@H](Cc1nncn1C)c1cccc(N2Cc3c(cc(CN4CC[C@H](F)C4)cc3C(F)(F)F)C2=O)c1 | >4 | >3 | >=7.5 | >4 | >=5 | 2.01 | >=1.001 | >1.601 | >1.601 | >1.61 | >=5 | >=7.5 | >=5 | >4 | 1.31 | >4.01 | >4 | 1.51 | >1.61 | >4 | fold change (FC) [21]: >4.01; fold change (FC) [22]: >1.601; fold change (FC) [23]: 2.01; fold change (FC) [24]: >4; AUC (B cell): 1.01; fold change (FC) [25]: >4; fold change (FC) [26]: >4; fold change (FC) [27]: 2.01; fold change (FC) [28]: 2.01; fold change (FC) [29]: >=0.201; fold change (FC) [30]: 2.01; fold change (FC) [31]: 0.151; fold change (FC) [32]: 5; fold change (FC) [33]: >3.01; fold change (FC) [34]: 1.201; fold change (FC) [35]: 2.01; fold change (FC) [36]: 1.201; fold change (FC) [37]: >1.601
3 | C[C@H](Sc1nncn1C)c1cccc(NC(=O)c2cc(C(=O)N3CC[C@H](O)C3)ccn2)c1 | >4 | <=2 | <=1 | >4 | <=1 | <=1 | 0.801 | >1.601 | >1.601 | <=1.4 | 1.01 | <=1 | <=1 | 2.01 | 1.01 | 2.51 | >4 | 2.01 | <=1.4 | >4 | fold change (FC) [21]: <=2.5; fold change (FC) [22]: 1.401; fold change (FC) [23]: 2.01; fold change (FC) [24]: 2.01; AUC (B cell): < 0.5; fold change (FC) [25]: >4; fold change (FC) [26]: >4; fold change (FC) [27]: 1.51; fold change (FC) [28]: <=2; fold change (FC) [29]: <=0.05; fold change (FC) [30]: 2.01; fold change (FC) [31]: <=0.05; fold change (FC) [32]: <=1; fold change (FC) [33]: <=2.5; fold change (FC) [34]: 1.201; fold change (FC) [35]: <=1; fold change (FC) [36]: 1.201; fold change (FC) [37]: >1.601
4 | C[C@H](Cc1nncn1C)c1cccc(NC(=O)c2nc(C(F)(F)F)c[nH]2)c1 | 2.01 | <=2 | 2.51 | >4 | 1.01 | 2.01 | >=1.001 | 1.401 | 1.201 | <=1.4 | 2.01 | 2.51 | 2.01 | <=2 | 1.01 | 2.51 | 3.01 | 1.51 | >1.61 | 2.01 | fold change (FC) [21]: <=2.5; fold change (FC) [22]: 1.201; fold change (FC) [23]: <=1.5; fold change (FC) [24]: 1.51; AUC (B cell): < 0.5; fold change (FC) [25]: 2.01; fold change (FC) [26]: 2.01; fold change (FC) [27]: <=1.5; fold change (FC) [28]: <=2; fold change (FC) [29]: >=0.201; fold change (FC) [30]: 2.01; fold change (FC) [31]: 0.051; fold change (FC) [32]: 1.01; fold change (FC) [33]: >3.01; fold change (FC) [34]: 1.201; fold change (FC) [35]: 1.01; fold change (FC) [36]: <=1.2; fold change (FC) [37]: 1.401

— ChEMBL document CHEMBL5050844 (2019)
